Source: PubChem BioAssay (NCI)
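48-hour exposure; five concentrations; linearly interpolated endpoints. GI50: concentration for 50% inhibition of growth. TGI is the concentration that stops growth completely.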

Assays:
Experiment in all cases: DTP human tumour cell line panel, 48 h
DMS 273 small cell lung = system: DMS 273 small cell lung
RXF-631 renal = system: RXF-631 renal
M19-MEL melanoma = system: M19-MEL melanoma
DLD-1 colon = system: DLD-1 colon
SNB-78 CNS = system: SNB-78 CNS
XF 498 CNS = system: XF 498 CNS
HOP-18 NSCLC = system: HOP-18 NSCLC
MDA-N = system: MDA-N

| SMILES | TGI (DMS 273 small cell lung) [µM] | TGI (RXF-631 renal) [µM] | TGI (M19-MEL melanoma) [µM] | TGI (DLD-1 colon) [µM] | TGI (SNB-78 CNS) [µM] | TGI (XF 498 CNS) [µM] | TGI (HOP-18 NSCLC) [µM] | TGI (MDA-N) | GI50 (MDA-N) | GI50 (DLD-1 colon) [µM] |
| --- | --- | --- | --- | --- | --- | --- | --- | --- | --- | --- |
| O=C1CCC2CCOc3ccc(O)c1c32 (configuration not stated) | > 100 | > 100 | > 100 | > 100 | > 100 | – | – | – | – | – |
| N#Cc1nc(Nc2ccc([N+](=O)[O-])cc2)sc1N | > 100 | > 75 | > 100 | > 100 | > 93 | > 100 | > 100 | – | – | – |
| Cc1ccc([Se][Se]c2ccc(C)cc2)cc1 | 32.4 | 77.9 | 40.6 | > 100 | 87.6 | 40.8 | 33.5 | – | – | – |
| CC1=C(c2cc(C(=O)Nc3cccc(C(F)(F)F)c3)nc(NC#N)n2)Sc2ccccc2N1 | > 100 | > 100 | > 100 | > 100 | > 100 | – | > 100 | – | – | – |
| O=C(/C=C/c1ccc(Cl)cc1)c1ccncc1 | > 100 | > 100 | 68.7 | > 100 | > 100 | – | > 100 | – | – | – |
| O=C1CCC(=O)C12CCc1cccc(O)c12 | > 100 | – | > 100 | > 100 | > 100 | > 100 | > 100 | – | – | – |
| Cc1nn(C)c(=O)c2nn(-c3ccccc3)c(C)c12 | > 100 | – | > 100 | > 100 | > 100 | – | > 100 | – | – | – |
| O=C1CC(c2c[nH]c3ccccc23)C(=O)N1c1ccccc1 (configuration not stated) | > 100 | – | > 100 | > 100 | > 100 | > 100 | – | – | – | – |
| O=C(O/N=C1/CCCC/C1=C\c1ccccc1)c1ccc(Cl)cc1 | > 100 | – | > 100 | > 100 | > 100 | 48.1 | > 100 | – | – | – |
| C=CCNC(=S)OCCCCCCCCCC | 37.3 | – | 32.5 | 30.7 | 36.7 | 29.7 | 51.8 | – | – | – |
| COP1(=S)OCC2CCC[C@@H]2O1 (some centres not stated) | – | – | – | – | – | – | – | > 100 µM | – | – |
| Cc1nc2ccc(NCCN(C)C)c3c(=O)c4cc(O)ccc4n1c23 | 1.76 | 1.96 | 9.27 | – | – | 11.2 | – | 13.7 µM | – | – |
| O=[N+]([O-])c1ccc2c(c1)S(=O)c1ccccc1-2 (configuration not stated) | – | – | – | – | – | – | – | > 100 µM | – | – |
| COc1cc(/C=C2\CCc3ccccc3C2=O)cc(OC)c1OC | 24.2 | 38.6 | 30 | 28.3 | 74.1 | 32.1 | 26.9 | – | – | – |
| CC(C)CC(=O)CC(O)C(Cl)(Cl)Cl (configuration not stated) | – | – | – | – | – | – | – | > 100 µM | – | – |
| CCc1cccc(C(C)CC)c1NC(=O)CC1C(=O)Nc2ccccc2S1=O (configuration not stated) | > 100 | > 100 | > 100 | > 100 | 92.9 | – | – | – | – | – |
| COC(=O)C(=O)C(C#N)c1ccc(Cl)c(Cl)c1 (configuration not stated) | > 100 | > 100 | > 100 | > 100 | > 100 | > 100 | – | – | – | – |
| O=C1C=C(Nc2nc(C(=O)O)cc(=O)[nH]2)c2ccccc2C1=O | – | – | – | – | – | – | – | > 100 µM | – | – |
| Cc1cccc(N2C(=O)C(=O)C(c3nc4ccccc4s3)C(=O)C2=O)c1C | > 100 | > 100 | > 100 | > 100 | > 100 | – | > 100 | – | – | – |
| COc1ccc(CCC2NCCc3cc(OC)c(OC)cc32)cc1 (configuration not stated) | – | – | – | > 100 | > 100 | > 100 | > 100 | – | – | – |
| Cc1ccc(N(C(=O)CC(=O)N2N=C(c3ccccc3)C(N=Nc3ccc([N+](=O)[O-])cc3)C2=O)C(=O)c2ccc(Cl)cc2)cc1 (configuration not stated) | 20.3 | – | > 53.9 | > 55.9 | > 100 | 52.2 | > 85.6 | – | – | – |
| CC1=N/C(=C\c2cccc3ccccc23)C(=O)O1 | – | > 100 | > 100 | > 100 | > 100 | – | > 100 | – | – | – |

| SMILES | TGI (DMS 273 small cell lung) [µM] | TGI (RXF-631 renal) [µM] | TGI (M19-MEL melanoma) [µM] | TGI (DLD-1 colon) [µM] | TGI (SNB-78 CNS) [µM] | TGI (XF 498 CNS) [µM] | TGI (HOP-18 NSCLC) [µM] | TGI (MDA-N) | GI50 (MDA-N) | GI50 (DLD-1 colon) [µM] |
| --- | --- | --- | --- | --- | --- | --- | --- | --- | --- | --- |
| CC(C)c1ccc(O)c(=O)cc1 | > 46.3 | – | > 70.9 | > 100 | > 91.1 | > 100 | > 56.1 | – | 22.7 µM | – |
| Cn1cnc([N+](=O)[O-])c1Sc1nnc(C(F)(F)F)n1C | 87.5 | 39.6 | 37.2 | 33.5 | > 100 | – | 76.2 | – | – | – |
| CCc1nc(N)nc(N)c1-c1ccc(Cl)c(N=NN(C)C)c1 | – | – | – | – | – | – | – | > 100 µM | – | – |
| Oc1ccc(SCc2ccc(NCc3ccccc3)cc2)cc1 | – | – | – | – | – | – | – | 57.4 µM | – | – |
| CCCCCCCCCC(=O)N[C@H]1CCc2cc(OC)c(OC)c(OC)c2-c2ccc(SC)c(=O)cc21 | 0.295 | – | 67.4 | 57.7 | 38.9 | 0.0693 | – | – | – | 11.2 |
| CCOC(=O)C1(C(=O)OCC)CC=C(C)CC12C(=O)Nc1ccccc12 (configuration not stated) | > 100 | – | > 100 | > 100 | – | > 100 | > 100 | – | – | – |
| COc1ccc(S(=O)(=O)N/N=C(\C)CN2C(=O)c3ccccc3C2=O)cc1 | > 100 | > 100 | > 100 | > 100 | > 100 | – | > 100 | – | – | – |
| CCN1CCCCC(=N\O)/C(=N/O)CCCC1 | – | – | – | – | – | – | – | > 100 µM | – | – |
| COc1cccc2c1C(=O)c1c(O)c3c(c(O)c1C2=O)C[C@@](O)(/C(C)=N\O)C[C@@H]3OC1CC(N)C(O)C(C)O1 (some centres not stated) | 4.52 | 45.5 | 3.79 | 18.2 | 8.2 | 0.951 | 7.26 | 5.83 µM | – | – |
| CS(=O)(=O)CS(=O)CS(=O)CS(=O)CC(NC(=O)CCC(N)C(=O)O)C(=O)O (configuration not stated) | – | – | – | – | – | – | – | > 100 µM | – | – |
| CN(Cc1ccccc1)C1(N(C)Cc2ccccc2)CC1 | > 100 | – | > 100 | > 100 | > 100 | > 100 | > 100 | – | – | – |
| CC(C)(CCC(C)(C)c1ccccc1)c1ccccc1 | – | – | – | – | – | – | – | 56.8 µM | – | – |
| CN(C)CCNC(=O)c1cccc2c1nc(-c1ccccn1)c1ccccc12 | 29.9 | – | 32 | 31 | 67.9 | – | 96.8 | – | – | – |
| Cc1nn(C)c(=S)n(C)c1=O | 11 | – | > 100 | > 100 | > 100 | 5.31 | 4.89 | – | – | – |
| C=C1C(=O)O[C@H]2[C@H]1CC(=O)/C(C)=C\CC[C@@]1(C)O[C@@H]21 | – | – | – | – | – | – | – | 7.87 µg/mL | 3.58 µg/mL | – |
| CC(C)(C)C(=O)OCC(COC(=O)C(C)(C)C)[N+](=O)[O-] | > 100 | – | > 100 | > 100 | – | > 100 | – | – | – | – |
| O=C(CC(=O)c1ccccc1NC1=Cc2ccccc2C(=O)C1=O)C(=O)NC1=C(Cl)C(=O)c2ccccc2C1=O | 6.8 | 31.9 | 0.931 | 11.7 | 8.79 | 4.66 | – | 3.15 µM | – | – |
| O=C1c2ccccc2C2(O)Oc3cccc(O)c3C12O (configuration not stated) | > 100 | > 100 | > 100 | > 100 | > 100 | – | > 100 | – | – | – |
| N#Cc1ccc2oc3ccc(C#N)cc3c(=O)c2c1 | – | – | – | – | – | – | – | 31.9 µM | – | – |
| COc1ccc(/C=C/C(C(=O)O)C(=O)O)cc1 | > 100 | – | > 100 | > 100 | > 100 | > 100 | – | – | – | – |
| CC1=N/C(=C\c2ccc([N+](=O)[O-])cc2)C(=O)O1 | – | > 100 | > 100 | > 100 | > 100 | – | > 100 | – | – | – |
